Experimental data reported in PubChem BioAssay AID1963984 (Molecular Pharmacology Branch, DTP, NCI, 2024).

Test system: 233499-124-R-J3-PDC spheroids with HUVEC/MSC, viability
Assay: Anticancer human tumor 233499-124-R-J3-PDC patient-derived colon adenocarcinoma cell line growth inhibition [PI3K]
Conditions: for IC50: curve of first compound; for viability, T/C: stronger effect = lower value
How it was run: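 Tumor cells grown as multi-cell spheroids with HUVEC endothelial cells and MSC fibroblast-like stroma were treated with targeted agents combined with inavolisib, alpelisib, duvelisib or copanlisib. Doses fell in half-log steps from near clinical Cmax, else from 10 microM. Viability was measured.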
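Also: spheroids exposed to agents for seven days before readout.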
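For viability, T/C in this document: percent viability relative to DMSO vehicle control taken as 100%.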

Work on `CC(Cn1ccc(-c2ccc(C#N)c(Cl)c2)n1)NC(=O)c1cc(C(C)O)[nH]n1` (configuration not stated) + Cc1nc(NC(=O)N2CCCC2C(N)=O)sc1-c1ccnc(C(C)(C)C(F)(F)F)c1 yielded an IC50 (second compound 0.0316 µM) greater than 10 µM, an IC50 (second compound 0.1 µM) greater than 10 µM and an IC50 (second compound 0.316 µM) greater than 10 µM. It also gave an IC50 (second compound 1 µM) greater than 10 µM, an IC50 (second compound 3.16 µM) of 5.95 µM and an IC50 (second compound 10 µM) of less than 0.0316 µM. The viability, T/C (second compound 0.0316 µM, first compound 0.0316 µM) was 88.9%, the viability, T/C (second compound 0.0316 µM, first compound 0.1 µM) was 81.6% and the viability, T/C (second compound 0.0316 µM, first compound 0.316 µM) was 101%. The viability, T/C (second compound 0.0316 µM, first compound 1 µM) was 97.3%, the viability, T/C (second compound 0.0316 µM, first compound 3.16 µM) was 95.6% and the viability, T/C (second compound 0.0316 µM, first compound 10 µM) was 85.6%. It also gave a viability, T/C (second compound 0.1 µM, first compound 0.0316 µM) of 102%, a viability, T/C (second compound 0.1 µM, first compound 0.1 µM) of 106% and a viability, T/C (second compound 0.1 µM, first compound 0.316 µM) of 98.7%. The viability, T/C (second compound 0.1 µM, first compound 1 µM) was 108%, the viability, T/C (second compound 0.1 µM, first compound 3.16 µM) was 72.6% and the viability, T/C (second compound 0.1 µM, first compound 10 µM) was 92.5%. For the same molecule, the viability, T/C (second compound 0.316 µM, first compound 0.0316 µM) was 55.1%, the viability, T/C (second compound 0.316 µM, first compound 0.1 µM) was 74.3% and the viability, T/C (second compound 0.316 µM, first compound 0.316 µM) was 105%. For the same molecule, the viability, T/C (second compound 0.316 µM, first compound 1 µM) was 100%, the viability, T/C (second compound 0.316 µM, first compound 3.16 µM) was 86.7% and the viability, T/C (second compound 0.316 µM, first compound 10 µM) was 77.6%. It also gave a viability, T/C (second compound 1 µM, first compound 0.0316 µM) of 77.2%, a viability, T/C (second compound 1 µM, first compound 0.1 µM) of 76.5% and a viability, T/C (second compound 1 µM, first compound 0.316 µM) of 83.7%. It also gave a viability, T/C (second compound 1 µM, first compound 1 µM) of 50.5%, a viability, T/C (second compound 1 µM, first compound 3.16 µM) of 63.6% and a viability, T/C (second compound 1 µM, first compound 10 µM) of 81.9%. It also gave a viability, T/C (second compound 3.16 µM, first compound 0.0316 µM) of 61.8%, a viability, T/C (second compound 3.16 µM, first compound 0.1 µM) of 53.8% and a viability, T/C (second compound 3.16 µM, first compound 0.316 µM) of 59.7%. For the same molecule, the viability, T/C (second compound 3.16 µM, first compound 1 µM) was 64.6%, the viability, T/C (second compound 3.16 µM, first compound 3.16 µM) was 39.6% and the viability, T/C (second compound 3.16 µM, first compound 10 µM) was 52.5%. It also gave a viability, T/C (second compound 10 µM, first compound 0.0316 µM) of 30.7%, a viability, T/C (second compound 10 µM, first compound 0.1 µM) of 33.9% and a viability, T/C (second compound 10 µM, first compound 0.316 µM) of 35%. The viability, T/C (second compound 10 µM, first compound 1 µM) was 42.2%, the viability, T/C (second compound 10 µM, first compound 3.16 µM) was 21.9% and the viability, T/C (second compound 10 µM, first compound 10 µM) was 38.9%.
